Assay results as given in patent publication US20080069809A1, “Compositions and methods for the diagnosis and treatment of cancer” (priority 2006, published 2008).

Experiments:
NB4 = test: Apoptosis (sub-G1 DNA by FACS) in NB4 leukemic cells; format: cell-based
Experimental: The myeloid leukemic cell lines HL60, NB60, NB4, U937, K562 and KG1a were all grown in RPMI 1640 medium (Life Technologies, Paisley, United Kingdom) supplemented with 10% v/v fetal calf serum (Sear Laboratories International Crawley, United Kingdom), 100 U/mL penicillin, and 100 μg/mL streptomycin (Sigma Aldrich, Poole, United Kingdom) at 37° C. and 5% v/v CO2. AML blasts were isolated from patient bone marrow aspirates and peripheral blood of eight patients at diagnosis or relapse. Patients were not receiving AML therapy at time of sampling. Blasts were isolated by Ficoll density centrifugation and were cultured in serum-free insulin transferrin selenium-positive (ITS+) medium (Life Technologies) containing 300 ng/mL stem cell factor (SCF) and 10 ng/mL interleukin 3 (IL3; R and D Systems, Abingdon, United Kingdom) and antibiotics. […] Normal myeloblasts were isolated from cord blood or adult mobilized peripheral blood. Briefly, CD34^+ cells were indirectly selected from the mononuclear cell preparations using antibody-coated magnetic beads (Miltenyi Biotec, United Kingdom).
(§1) To determine the effects of ingenol-3-angelate (PEP005), cells were incubated for up to 5 days with medium alone or PEP005 at a range of concentrations from 0.2 nM to 20 μM. […] Apoptosis and differentiation were assessed after 1 to 5 days.

HL60 [1] = test: Differentiation (CD11b expression) in HL60 cells; format: cell-based
Experimental: (§2) The myeloid leukemic cell lines HL60, NB60, NB4, U937, K562 and KG1a were all grown in RPMI 1640 medium (Life Technologies, Paisley, United Kingdom) supplemented with 10% v/v fetal calf serum (Sear Laboratories International Crawley, United Kingdom), 100 U/mL penicillin, and 100 μg/mL streptomycin (Sigma Aldrich, Poole, United Kingdom) at 37° C. and 5% v/v CO2. AML blasts were isolated from patient bone marrow aspirates and peripheral blood of eight patients at diagnosis or relapse. Patients were not receiving AML therapy at time of sampling. […] Blast purity ranged from 80% to 95%, as assessed by expression of CD34. […]
(§3) Cell differentiation was determined by staining of cells with anti-CD11b antibody as a general early marker of myeloid differentiation. In studies with HL60 cells, PEP005-treated and 20 nM phorbol myristate (PMA)-treated (Sigma Aldrich) cells were also assessed for their ability to phagocytose complement-coated yeast, a marker of a fully differentiated myeloid cell, as previously described (Toksoz et al, Leukemia Res 6:491-498, 1982). […] Images were captured with a SPOT2 cameria (Diagnostic Instructions, Sterling Heights, Mich.) and analyzed using Image-Pro 4.0 software (Media Cybernetics, Silver Spring, Md.).

KG1a = test: Differentiation (CD11b expression) in KG1a cells; format: cell-based
Experimental: (§4) The myeloid leukemic cell lines HL60, NB60, NB4, U937, K562 and KG1a were all grown in RPMI 1640 medium (Life Technologies, Paisley, United Kingdom) supplemented with 10% v/v fetal calf serum (Sear Laboratories International Crawley, United Kingdom), 100 U/mL penicillin, and 100 μg/mL streptomycin (Sigma Aldrich, Poole, United Kingdom) at 37° C. and 5% v/v CO2. AML blasts were isolated from patient bone marrow aspirates and peripheral blood of eight patients at diagnosis or relapse. Patients were not receiving AML therapy at time of sampling. Blasts were isolated by Ficoll density centrifugation and were cultured in serum-free insulin transferrin selenium-positive (ITS+) medium (Life Technologies) containing 300 ng/mL stem cell factor (SCF) and 10 ng/mL interleukin 3 (IL3; R and D Systems, Abingdon, United Kingdom) and antibiotics. Blast purity ranged from 80% to 95%, as assessed by expression of CD34. Normal myeloblasts were isolated from cord blood or adult mobilized peripheral blood. Briefly, CD34^+ cells were indirectly selected from the mononuclear cell preparations using antibody-coated magnetic beads (Miltenyi Biotec, United Kingdom).
as §3, with “1982). The ingestion of three or more yeasts was taken as a positive result. In normal cord blood or adult bone marrow myeloblasts, loss of CD34 was taken as a marker of differentiation. Isotype-matched controls were used and all antibodies were from DAKO (Cambridge, United Kingdom).” for “1982).”

HL60 [2] = test: Phagocytosis of complement-coated yeast by HL60 cells; format: cell-based; conditions: after 3 days of treatment, PMA 20 nM
Experimental: Cell differentiation was determined by staining of cells with anti-CD11b antibody as a general early marker of myeloid differentiation. In studies with HL60 cells, PEP005-treated and 20 nM phorbol myristate (PMA)-treated (Sigma Aldrich) cells were also assessed for their ability to phagocytose complement-coated yeast, a marker of a fully differentiated myeloid cell, as previously described (Toksoz et al, Leukemia Res 6:491-498, 1982). The ingestion of three or more yeasts was taken as a positive result. In normal cord blood or adult bone marrow myeloblasts, loss of CD34 was taken as a marker of differentiation. Isotype-matched controls were used and all antibodies were from DAKO (Cambridge, United Kingdom). […] Cells were also used to prepare cytospins, which were then differentially stained using a commercial May-Grünwald-Ginesa stain (Diff-Kwik; Gamidor, Abingdon, United Kingdom) to identify cells with a blast or differentiated or apoptotic morphology. Slides were examined using a Zeiss III RS brightfield microscope equipped with a 40×/0.75 water-immersion objective (Carl Zeiss, Jena, Germany). Images were captured with a SPOT2 cameria (Diagnostic Instructions, Sterling Heights, Mich.) and analyzed using Image-Pro 4.0 software (Media Cybernetics, Silver Spring, Md.).

primary AML blasts = test: Apoptosis in primary AML blasts from patient bone marrow; format: cell-based, human
Experimental: as §4, §1, §3

Normal CD34+ myeloblasts [3] = test: Apoptosis / cytotoxicity in normal CD34+ myeloblasts; format: cell-based, human
Experimental: as §2, §1
Cell differentiation was determined by staining of cells with anti-CD11b antibody as a general early marker of myeloid differentiation. In studies with HL60 cells, PEP005-treated and 20 nM phorbol myristate (PMA)-treated (Sigma Aldrich) cells were also assessed for their ability to phagocytose complement-coated yeast, a marker of a fully differentiated myeloid cell, as previously described (Toksoz et al, Leukemia Res 6:491-498, 1982). […]

Normal CD34+ myeloblasts [4] = test: Differentiation of normal CD34+ myeloblasts (loss of CD34, morphology); format: cell-based, human; conditions: doses of 20 nM to 2.0 μM PEP005
Experimental: as §2, §3

[5] = tested on: EGFP-positive KG1a cells transfected with control vector; test: Apoptosis in KG1a cells transfected with control vector pEGFP; format: cell-based; conditions: even at 20 μM PEP005, 3 days
Experimental: KG1a cells were transiently transfected with EGFP-tagged mouse PKC-δ subcloned into pEGFP-N1 plasmid (available from National Cancer Institute [NCI], Bethesda, Md.) using an Amaxa nucleofection apparatus (Amaxa, Koeln, Germany). Transfection efficiency was approximately 35% as judged by fluorescence-activated cell sorter (FACS) analysis and cells were treated with PEP005 (0.2 μM-20 μM) 24 hours after transfection. Cell viability in EGFP-positive cells was assessed by analysis of cell morphology (forward scatter and side scatter profile) by FACS and loss of viability confirmed in the total cell culture by MTT assay after 3 days. Briefly, 24 hours after transfection, 2×10^4 cells were plated in five wells in 96-well plates and exposed to […] PEP005. At 72 hours, 20 μL MTT substrate at 5 mg/mL was added and plates were incubated at 37° C. After 3 hours, 150 μL media was removed and replated with 200 μL dimethyl sulfoxide (DMSO). Absorbance at an optical density (OD) of 550 nm was read on a Biotech plate reader (Amersham Pharmacia) and corrected for absorbance obtained from blank media controls.

protein kinase C (PKC) = conditions: Kedei et al 2004; cited from earlier work

For C/C=C(/C)C(=O)O[C@H]1C(C)=C[C@]23C(=O)[C@@H](C=C(CO)[C@@H](O)[C@]12O)[C@H]1[C@@H](C[C@H]3C)C1(C)C [PEP005, ingenol-3-angelate], the “PEP005 concentration with optimal effect, apoptosis” value (NB4; sub-G1 DNA by FACS, treated 5 days) was 20 nM, the “fraction of cells entering apoptosis (kinetic study)” value (NB4; within the first 1 to 2 days of treatment) was “up to half of the cells entering apoptosis” and the “synergy with ATRA in CD11b differentiation response” value (HL60 [1]; 10 nM ATRA and 20 nM PEP005 in combination, 5 days) was “able to synergize with ATRA”. For the same compound, the “PEP005 concentration with optimal effect, CD11b expression” value (HL60 [1]; treated 5 days) was 20 nM, the differentiation response (KG1a; agent alone) was “did not respond” and the CD11b expression (KG1a; even at 20 μM PEP005) was “did not enter apoptosis or show CD11b expression”. For the same compound, the “differentiation to phagocytes (ability to phagocytose yeast)” value (HL60 [2]) was “did not lead to production of phagocytic cells”, the “viable blast cells / morphology” value (primary AML blasts; after 48 hours of treatment with 20 nM PEP005) was “few viable AML blast cells remained” and the “patient AML blast samples induced to enter apoptosis” value (primary AML blasts; blasts of eight AML patients) was “seven of these were induced to enter apoptosis”. For the same compound, the “lowest PEP005 concentration inducing apoptosis” value (primary AML blasts; seven responsive AML samples) was 2 nM, the induction of apoptosis (Normal CD34+ myeloblasts [3]; concentrations of PEP005 effective against cell lines and AML blast cells, cord blood and adult marrow myeloblasts) was “Induction of apoptosis was not seen” and the cytotoxicity (Normal CD34+ myeloblasts [3]; even at 200 nM PEP005) was “cytotoxicity did not occur”. The “differentiation (loss of CD34, promyelocyte- and myelocyte-like morphologies)” value (Normal CD34+ myeloblasts [4]) was “induced to differentiate”, the “apoptosis (forward and side scatter by FACS)” value [5] was “resistant to PEP005-induced apoptosis” and the “activation of protein kinase C” value (protein kinase C (PKC)) was “potent activator”.
